Common to all, as to format: cell-based
Test [1] deals with HEK293. In words: Inhibition of protein phosphatase-1 in human HEK293 cells assessed as exon 7 inclusion in the survival of motor neuron 2 gene at 1 to 100 uM after 14 to 16 hrs by RT-PCR analysis.
Test [2] concerns HEK293. In words: Inhibition of protein phosphatase-1 in human HEK293 cells assessed as increase in exon 7 inclusion in the survival of motor neuron 2 gene at 10 to 100 uM after 14 to 16 hrs by RT-PCR analysis.
Test [3] has as its system HEK293. The test can be described thus: Inhibition of protein phosphatase-1 in human HEK293 cells assessed as increase in exon 7 inclusion in the survival of motor neuron 2 gene after 14 to 16 hrs by RT-PCR analysis.

The source made the active and inactive calls. No cut-off for these calls is given here.

For `CNCCc1ccc(CCO)cc1`, the inhibition entry in test [1] was “inactive”.
Consider `CO[C@@H]1[C@H](OP(=O)(O)OCCc2ccc(CCN(C)C(=O)[C@H]3[C@@H](C(=O)O)[C@@H]4CC[C@H]3O4)cc2)[C@@H](CO)O[C@H]1n1cnc2c(=O)[nH]c(N)nc21` (mixture of isomers), for which the results for the Activity in test [2] and in test [3] were 25% and “Dose-dependent effect”, respectively.

Source of the values: ChEMBL document CHEMBL3745684, “Synthesis of a norcantharidin-tethered guanosine: Protein phosphatase-1 inhibitors that change alternative splicing” (Bioorg Med Chem Lett, 2016).
